Reference: PubChem BioAssay AID248 (DTP/NCI, 2004)
Several values for one entry are separate records, joined by “and”; a condition that tells them apart may be missing. Equal entries are not always repeated. Inconclusive results and toxic doses are left out. Cut-off read from the data, not from the text of the source: active = T/C of 150% or more; inactive = T/C below 125%.

Test system: L1210 leukemia ip in BDF1 mice, survival T/C
Assay: NCI In Vivo Anticancer Drug Screen. Data for tumor model L1210 Leukemia (intraperitoneal) in B6D2F1 (BDF1) mice
Conditions: endpoint: mean survival time, higher = longer survival
Procedure, shortened: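 Ratio derived from survival: compound-dosed mice over vehicle-dosed mice, all bearing a transplantable tumor.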

[1] = dose: 100.0 mg/kg/injection, schedule: Q04DX003 (ip), vehicle: gum acacia
[2] = dose: 200.0 mg/kg/injection, schedule: Q04DX003 (ip), vehicle: gum acacia
[3] = dose: 100.0 mg/kg/injection, schedule: Q01DX009 (ip), vehicle: saline with Tween-80
[4] = dose: 200.0 mg/kg/injection, schedule: Q01DX009 (ip), vehicle: saline with Tween-80
[5] = dose: 400.0 mg/kg/injection, schedule: Q01DX009 (ip), vehicle: saline with Tween-80
[6] = dose: 100.0 mg/kg/injection, schedule: Q04DX002 (ip), vehicle: saline with Tween-80
[7] = dose: 100.0 mg/kg/injection, schedule: Q04DX003 (ip), vehicle: saline with Tween-80
[8] = dose: 200.0 mg/kg/injection, schedule: Q04DX002 (ip), vehicle: saline with Tween-80
[9] = dose: 200.0 mg/kg/injection, schedule: Q04DX003 (ip), vehicle: saline with Tween-80
[10] = dose: 50.0 mg/kg/injection, schedule: Q01DX009 (ip), vehicle: saline with Tween-80
[11] = dose: 100.0 mg/kg/injection, schedule: Q01DX009 (ip), vehicle: Klucel (hydroxypropylcellulose) (HPC)
[12] = dose: 200.0 mg/kg/injection, schedule: Q01DX009 (ip), vehicle: Klucel (hydroxypropylcellulose) (HPC)
[13] = dose: 400.0 mg/kg/injection, schedule: Q01DX009 (ip), vehicle: Klucel (hydroxypropylcellulose) (HPC)
[14] = dose: 100.0 mg/kg/injection, schedule: Q01DX001 (ip), vehicle: saline
[15] = dose: 200.0 mg/kg/injection, schedule: Q01DX001 (ip), vehicle: saline
[16] = dose: 400.0 mg/kg/injection, schedule: Q01DX001 (ip), vehicle: saline

Measured: T/C

CC[P+](CC=C(C)C)(c1ccccc1)c1ccccc1
inactive: dose: 0.78 mg/kg/injection, schedule: Q04DX003 (ip), vehicle: Klucel (hydroxypropylcellulose) (HPC) 96 % of control | dose: 1.56 mg/kg/injection, schedule: Q04DX003 (ip), vehicle: Klucel (hydroxypropylcellulose) (HPC) 94 % of control | dose: 3.12 mg/kg/injection, schedule: Q04DX003 (ip), vehicle: Klucel (hydroxypropylcellulose) (HPC) 113 % of control and 88 % of control

CCCC(=O)OC1=CC(=O)c2ccccc2C1=O
inactive: dose: 75.0 mg/kg/injection, schedule: Q01DX001 (ip), vehicle: other 94 % of control | dose: 150.0 mg/kg/injection, schedule: Q01DX001 (ip), vehicle: other 89 % of control

CC1=CC(=O)c2[nH]ncc2C1=O
inactive: dose: 10.0 mg/kg/injection, schedule: Q01DX001 (ip), vehicle: water 93 % of control

O=C(Nc1ccc(Cl)cc1)c1ccccc1Cl
inactive: dose: 100.0 mg/kg/injection, schedule: Q04DX002 (ip), vehicle: Klucel (hydroxypropylcellulose) (HPC) 93 % of control | dose: 200.0 mg/kg/injection, schedule: Q04DX002 (ip), vehicle: Klucel (hydroxypropylcellulose) (HPC) 100 % of control | dose: 400.0 mg/kg/injection, schedule: Q04DX002 (ip), vehicle: Klucel (hydroxypropylcellulose) (HPC) 100 % of control

Nc1c(C(=O)O)ccc2c1C(=O)c1ccccc1C2=O
inactive: dose: 25.0 mg/kg/injection, schedule: Q04DX003 (ip), vehicle: gum acacia 103 % of control | dose: 50.0 mg/kg/injection, schedule: Q04DX003 (ip), vehicle: gum acacia 100 % of control | [1] 103 % of control and 108 % of control | [2] 97 % of control

CC(=O)COc1ccccc1-c1ccccc1
inactive: [3] 97 % of control | [4] 101 % of control | [5] 100 % of control

CCOC(=O)c1cnc(SC)nc1N(CC)c1ccccc1
inactive: dose: 100.0 mg/kg/injection, schedule: Q01DX009 (ip), vehicle: gum acacia 105 % of control | [1] 102 % of control | dose: 200.0 mg/kg/injection, schedule: Q01DX009 (ip), vehicle: gum acacia 100 % of control | [2] 102 % of control | dose: 400.0 mg/kg/injection, schedule: Q01DX009 (ip), vehicle: gum acacia 102 % of control | dose: 400.0 mg/kg/injection, schedule: Q04DX003 (ip), vehicle: gum acacia 102 % of control

CC(C)c1ccc2cc(C(C)C)ccc2c1
inactive: [3] 107 % of control | [4] 92 % of control | [5] 92 % of control

CCOC(=O)c1ccc(NC(=O)c2ccc(Cl)cc2Cl)cc1
inactive: dose: 50.0 mg/kg/injection, schedule: Q04DX003 (ip), vehicle: saline with Tween-80 102 % of control | [3] 96 % of control and 90 % of control | [6] 93 % of control and 113 % of control | [7] 98 % of control | [4] 97 % of control and 110 % of control | [8] 95 % of control and 91 % of control | [9] 98 % of control | dose: 400.0 mg/kg/injection, schedule: Q04DX002 (ip), vehicle: saline with Tween-80 102 % of control and 92 % of control

COC1OC(CBr)C(Br)C(OC(=O)c2ccccc2)C1OC(=O)c1ccccc1 (centres undefined)
inactive: dose: 75.0 mg/kg/injection, schedule: Q04DX002 (ip), vehicle: Klucel (hydroxypropylcellulose) (HPC) 103 % of control | dose: 150.0 mg/kg/injection, schedule: Q04DX002 (ip), vehicle: Klucel (hydroxypropylcellulose) (HPC) 98 % of control | dose: 300.0 mg/kg/injection, schedule: Q04DX002 (ip), vehicle: Klucel (hydroxypropylcellulose) (HPC) 98 % of control

O=C1OCCN1/N=C/c1ccc(Cl)cc1
inactive: dose: 25.0 mg/kg/injection, schedule: Q01DX009 (ip), vehicle: saline with Tween-80 102 % of control | dose: 37.5 mg/kg/injection, schedule: Q01DX009 (ip), vehicle: saline with Tween-80 98 % of control | [10] 102 % of control | dose: 75.0 mg/kg/injection, schedule: Q01DX009 (ip), vehicle: saline with Tween-80 93 % of control | [6] 96 % of control | [8] 107 % of control

C=CCNC(=S)Nc1ccc(OC(=O)NC(C)(C)C)cc1
inactive: [11] 94 % of control | [12] 95 % of control | [13] 89 % of control

C[N+]1(C)N=C(c2ccccc2)C=C1[O-]
inactive: dose: 100.0 mg/kg/injection, schedule: Q04DX002 (ip), vehicle: other 111 % of control | dose: 200.0 mg/kg/injection, schedule: Q04DX002 (ip), vehicle: other 106 % of control | dose: 400.0 mg/kg/injection, schedule: Q04DX002 (ip), vehicle: other 100 % of control

OC/C=C\CO
inactive: [14] 97 % of control and 103 % of control | [15] 97 % of control and 100 % of control | [16] 97 % of control and 105 % of control

CCCCCCCCCC(=O)N/N=C/c1c[nH]c2ccccc12
inactive: [11] 95 % of control | [12] 114 % of control | [13] 100 % of control

O=C1c2ccccc2C(=O)c2c(NCCN3CCOCC3)ccc(NCCN3CCOCC3)c21
inactive: dose: 87.5 mg/kg/injection, schedule: Q01DX009 (ip), vehicle: Klucel (hydroxypropylcellulose) (HPC) 96 % of control | dose: 175.0 mg/kg/injection, schedule: Q01DX009 (ip), vehicle: Klucel (hydroxypropylcellulose) (HPC) 102 % of control | dose: 350.0 mg/kg/injection, schedule: Q01DX009 (ip), vehicle: Klucel (hydroxypropylcellulose) (HPC) 107 % of control

O=C(O)/C=C\C(=O)Nc1ccccn1
inactive: [14] 92 % of control | [15] 100 % of control | [16] 103 % of control

CCCCCC(C)C1=NC(C)(C)CC(C)O1 (centres undefined)
inactive: dose: 5.0 mg/kg/injection, schedule: Q04DX003 (ip), vehicle: saline with Tween-80 101 % of control | dose: 10.0 mg/kg/injection, schedule: Q04DX003 (ip), vehicle: saline with Tween-80 95 % of control | dose: 20.0 mg/kg/injection, schedule: Q04DX003 (ip), vehicle: saline with Tween-80 108 % of control

C(/C=C/C=C/Nc1ccccc1)=Nc1ccccc1
inactive: [7] 100 % of control | [9] 104 % of control | dose: 400.0 mg/kg/injection, schedule: Q04DX003 (ip), vehicle: saline with Tween-80 92 % of control

C(=C\c1ccc(-n2nc3ccc4ccccc4c3n2)cc1)/c1ccccc1
inactive: [10] 97 % of control | [3] 102 % of control | [4] 102 % of control

COc1ccc(Br)cc1/C=N\NS(=O)(=O)c1ccc(C)cc1
inactive: dose: 100.0 mg/kg/injection, schedule: Q01DX009 (ip), vehicle: other 100 % of control | dose: 100.0 mg/kg/injection, schedule: Q04DX003 (ip), vehicle: saline 96 % of control | dose: 200.0 mg/kg/injection, schedule: Q01DX009 (ip), vehicle: other 105 % of control | dose: 200.0 mg/kg/injection, schedule: Q04DX003 (ip), vehicle: saline 96 % of control | dose: 400.0 mg/kg/injection, schedule: Q01DX009 (ip), vehicle: other 114 % of control | dose: 400.0 mg/kg/injection, schedule: Q04DX003 (ip), vehicle: saline 93 % of control

CC(=O)NC1(C(=O)O)CSSC1
inactive: dose: 50.0 mg/kg/injection, schedule: Q01DX005 (ip), vehicle: saline 102 % of control | dose: 100.0 mg/kg/injection, schedule: Q01DX005 (ip), vehicle: saline 100 % of control | dose: 200.0 mg/kg/injection, schedule: Q01DX005 (ip), vehicle: saline 93 % of control | dose: 400.0 mg/kg/injection, schedule: Q01DX005 (ip), vehicle: saline 102 % of control
